Assay results from patent publication US11970498B2, “CDK2 inhibitors” (BLUEPRINT MEDICINES CORPORATION, priority 2021, dated 2024).

How the values were obtained:
CDK2/Cyclin E = CDK2/Cyclin E (Homo sapiens, UniProt P24941); assay: CDK2/Cyclin E biochemical phosphorylation assay (Caliper mobility shift); settings: apparent IC50; 1.0 mM ATP or ATP Km; 1.25 nM enzyme; 25° C.; read-out: CDK2/cyclin E1 IC50
How it was run: (§1)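 7.5 µM 5-FAM-QSPKKG-CONH2 peptide phosphorylated by CDK2/Cyclin E (1.25 nM) or GST-CDK1/Cyclin B1 (1.5 nM) at 1.0 mM ATP or ATP Km, in HEPES pH 7.5, MgCl2, Brij-35, DTT, 1% DMSO, 25 °C to 10–20% conversion. EDTA stop; Caliper mobility-shift readout; apparent IC50 from percent activity vs log concentration.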

CDK1/Cyclin B1, GST-tag = molecular target: T1, CDK1/Cyclin B1, GST-tag (Homo sapiens, UniProt P06493); assay: CDK1/Cyclin B1 biochemical phosphorylation assay (Caliper mobility shift); settings: apparent IC50; 1.0 mM ATP or ATP Km; 1.5 nM enzyme; 25° C.
T1 construct: GST
How it was run: as §1

T1 sequence (P06493 whole entry): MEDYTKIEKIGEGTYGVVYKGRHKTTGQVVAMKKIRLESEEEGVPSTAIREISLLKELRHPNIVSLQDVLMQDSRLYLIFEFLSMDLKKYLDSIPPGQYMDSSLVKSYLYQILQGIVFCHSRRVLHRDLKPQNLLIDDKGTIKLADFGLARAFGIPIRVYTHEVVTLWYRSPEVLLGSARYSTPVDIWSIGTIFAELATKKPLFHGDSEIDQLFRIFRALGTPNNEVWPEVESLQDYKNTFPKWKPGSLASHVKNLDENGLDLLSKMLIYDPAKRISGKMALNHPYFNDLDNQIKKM
T1 sequence (P14635 whole entry partner): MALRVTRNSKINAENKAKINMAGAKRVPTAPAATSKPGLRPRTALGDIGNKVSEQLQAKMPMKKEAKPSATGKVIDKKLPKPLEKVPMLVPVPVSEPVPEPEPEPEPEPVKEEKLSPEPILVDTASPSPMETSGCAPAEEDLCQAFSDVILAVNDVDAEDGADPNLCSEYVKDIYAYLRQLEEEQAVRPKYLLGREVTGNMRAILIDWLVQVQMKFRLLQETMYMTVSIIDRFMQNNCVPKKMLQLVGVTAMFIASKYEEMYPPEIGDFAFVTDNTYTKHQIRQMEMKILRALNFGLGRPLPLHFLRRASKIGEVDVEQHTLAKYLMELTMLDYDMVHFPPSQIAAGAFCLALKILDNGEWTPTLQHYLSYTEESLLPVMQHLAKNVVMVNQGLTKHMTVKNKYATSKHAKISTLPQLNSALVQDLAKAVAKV

Row | Compound | IC50 (CDK2/Cyclin E) [nM] | IC50 (CDK1/Cyclin B1, GST-tag) [nM]
1 | FC(F)Oc1cc(Nc2cnc3cnn(CC45COCC4C5)c3n2)n[nH]1 (stereo not drawn) [Example 221, 1-(3-oxabicyclo[3.1.0]hexan-1-ylmethyl)-N-(5-(difluoromethoxy)-1H-pyrazol-3-yl)-1H-pyrazolo[3,4-b]pyrazin-6-amine] | 30 to 100 | ≥ 500
2 | FC(F)Oc1cc(Nc2cnc3cnn(Cc4cccnn4)c3n2)n[nH]1 [Example 222, N-(5-(difluoromethoxy)-1H-pyrazol-3-yl)-1-(pyridazin-3-ylmethyl)-1H-pyrazolo[3,4-b]pyrazin-6-amine] | ≤ 10 | ≥ 500
3 | FC(F)Oc1cc(Nc2cnc3cnn(Cc4cnccn4)c3n2)n[nH]1 [Example 223, N-(5-(difluoromethoxy)-1H-pyrazol-3-yl)-1-(pyrazin-2-ylmethyl)-1H-pyrazolo[3,4-b]pyrazin-6-amine] | 20 to 30 | ≥ 500
4 | [2H]C([2H])(c1cccnc1)n1ncc2ncc(Nc3cc(OC(F)F)[nH]n3)nc21 [Example 224, N-(5-(difluoromethoxy)-1H-pyrazol-3-yl)-1-(pyridin-3-ylmethyl-d2)-1H-pyrazolo[3,4-b]pyrazin-6-amine] | ≤ 10 | ≥ 500
5 | [2H]C([2H])(C1CCOCC1)n1ncc2ncc(Nc3cc(OC(F)F)[nH]n3)nc21 [Example 226, N-(5-(difluoromethoxy)-1H-pyrazol-3-yl)-1-((tetrahydro-2H-pyran-4-yl)methyl-d2)-1H-pyrazolo[3,4-b]pyrazin-6-amine] | ≤ 10 | 100 to 500
6 | [2H]C([2H])([2H])Oc1cc(Nc2cnc3cnn(Cc4cccnc4)c3n2)n[nH]1 [Example 227, N-(5-(methoxy-d3)-1H-pyrazol-3-yl)-1-(pyridin-3-ylmethyl)-1H-pyrazolo[3,4-b]pyrazin-6-amine] | 10 to 20 | ≥ 500

Further lines, results first:

Row | IC50 (CDK2/Cyclin E) [nM] | IC50 (CDK1/Cyclin B1, GST-tag) [nM] | Compound
7 | 20 to 30 | ≥ 500 | OCC1CC(n2ncc3ncc(Nc4cc(OC(F)F)[nH]n4)nc32)C1 (stereo not drawn) [Example 219, (3-(6-((5-(difluoromethoxy)-1H-pyrazol-3-yl)amino)-1H-pyrazolo [3,4-b]pyrazin-1-yl)cyclobutyl)methanol]
8 | 30 to 100 | ≥ 500 | O[C@H]1C[C@H](Cn2ncc3ncc(Nc4cc(OC(F)F)[nH]n4)nc32)C1 [Example 220, (1r,3r)-3-((6-((5-(difluoromethoxy)-1H-pyrazol-3-yl)amino)-1H-pyrazolo[3,4-b]pyrazin-1-yl)methyl)cyclobutan-1-ol]
9 | 30 to 100 | ≥ 500 | [2H]C([2H])(C)n1ncc2ncc(Nc3cc(OC(F)F)[nH]n3)nc21 [Example 225, N-(5-(difluoromethoxy)-1H-pyrazol-3-yl)-1-(ethyl-1,1-d2)-1H-pyrazolo[3,4-b]pyrazin-6-amine]
